Data taken from BigSolDB 2.1.

O=C(Oc1ccccc1)c1ccccc1O
solubility (mole fraction)
Conditions	in ethanol	in isobutanol	in isopropanol	in methanol	in n-butanol	in n-propanol	in sec-butanol
283.15 K	0.0226	0.0185	0.0169	0.0162	0.0337	0.0272	0.0381
288.15 K	0.0361	0.0288	0.0273	0.0251	0.0511	0.043	0.0602
293.15 K	0.0647	0.0517	0.0487	0.0459	0.0908	0.0756	0.105
298.15 K	0.127	0.112	0.101	0.0946	0.182	0.152	0.201
303.15 K	0.289	0.279	0.275	0.274	0.34	0.33	0.398
308.15 K	0.715	0.709	0.702	0.694	0.75	0.718	0.752
